Results as given in ChEMBL document CHEMBL1128443, “Synthesis and structure-activity relationships of phenylenebis(methylene)-linked bis-tetraazamacrocycles that inhibit HIV replication. Effects of macrocyclic ring size and substituents on the aromatic linker” (J Med Chem, 1995).

Legend:
[1] = test system: MT4; assay: Concentration required to reduce the viability of mock-infected MT-4 cells; assay type: functional, Homo sapiens
[2] = test system: Human immunodeficiency virus 1; assay: Concentration required to protect the virus infected cells against viral cytopathicity was measured on HIV-1(IIIB) virus strain in MT-4 cells; assay type: functional, organism-based, MT4
[3] = test system: Human immunodeficiency virus 2; assay: Concentration required to protect the virus infected cells against viral cytopathicity was measured on HIV-2(ROD) virus strain in MT-4 cells; assay type: functional, organism-based, MT4
[4] = test system: MT4; settings: Homo sapiens
[5] = Human immunodeficiency virus 1, MT4
[6] = Human immunodeficiency virus 2, MT4
[7] = mt4, tested as the Zn salt or complex

| Molecule | EC50 [2, 5] [µM] | EC50 [3, 6] [µM] | CC50 ([1]; Homo sapiens, MT4) [µM] | further results |
| --- | --- | --- | --- | --- |
| c1cc(CN2CCCNCCNCCCNCC2)cc(CN2CCCNCCNCCCNCC2)c1 | 0.0337 | 0.0422 | > 421 | – |
| c1cc(CN2CCCNCCNCCCNCC2)ccc1CN1CCCNCCNCCCNCC1 [listing 1 of 2 here] | 0.0042 | – | > 421 | – |
| Fc1c(F)c(CN2CCCNCCNCCCNCC2)c(F)c(F)c1CN1CCCNCCNCCCNCC1 | 0.0079 | 0.0079 | 47 | – |
| 1,1'-[1,4-phenylenebis(methylene)]bis[1,4,8,11-tetraazacyclotetradecane]copper Heptahydrate (7H2O) [listing 1 of 2 here] | – | – | – | EC50 ([2]; mt4): 0.0181 µM; EC50 ([3]; mt4): 0.0272 µM |
| 1,1'-[1,4-phenylenebis(methylene)]bis[1,4,8,11-tetraazacyclotetradecane] Palladium Diperchlorate Tetrahydrate (4H2O) [listing 1 of 2 here] | – | – | – | CC50 [4]: > 210 µM |
| 1,1'-[1,4-phenylenebis(methylene)]bis[1,4,8,11-tetraazacyclotetradecane]copper Heptahydrate (7H2O) [listing 2 of 2 here] | – | – | – | CC50 [4]: > 201 µM |
| C1CNCCNCCCNCCNC1 | 399 | 150 | > 1250 | – |
| c1cc(CN2CCNCCNCCNCC2)ccc1CN1CCNCCNCCNCC1 | 0.322 | 2.36 | 55 | – |
| c1cc(CN2CCNCCCNCCNCC2)ccc1CN1CCNCCCNCCNCC1 | 0.167 | 0.234 | > 208 | – |
| Cc1cc(CN2CCCNCCNCCCNCC2)c(C)cc1CN1CCCNCCNCCCNCC1 | 0.0064 | 0.0011 | > 208 | – |
| c1cc(CN2CCCNCCCNCCNCCC2)cc(CN2CCCNCCCNCCNCCC2)c1 | 2.72 | 11.7 | > 190 | – |
| c1cc(CN2CCNCCNCCNCC2)cc(CN2CCNCCNCCNCC2)c1 | 0.0751 | 0.536 | 20 | – |
| c1cc(CN2CCCNCCNCCCNCC2)ccc1CN1CCCNCCNCCCNCC1 [listing 2 of 2 here] | – | – | – | CC50 ([1]; tested as the Zn salt or complex): > 251 µM; EC50 [2, 7]: 0.0033 µM; EC50 [3, 7]: 0.0024 µM |
| Clc1c(Cl)c(CN2CCCNCCNCCCNCC2)c(Cl)c(CN2CCCNCCNCCCNCC2)c1Cl | 0.529 | 1.96 | 9 | – |
| Brc1cc(CN2CCCNCCNCCCNCC2)cc(CN2CCCNCCNCCCNCC2)c1 | 0.0845 | 0.0538 | > 192 | – |
| c1cc(CN2CCCNCCNCCCNCC2)ccc1CN1CCCNCCCNCCCNCCC1 | 2.43 | 11.6 | > 209 | – |
| c1ccc(-c2cc(CN3CCCNCCNCCCNCC3)cc(CN3CCCNCCNCCCNCC3)c2)cc1 | 0.206 | 0.0246 | > 198 | – |
| NCCCNCCNCCCNCc1ccc(CN2CCCNCCNCCCNCC2)cc1 | 0.373 | 0.711 | > 444 | – |
| 1,1'-[1,4-phenylenebis(methylene)]bis[1,4,8,11-tetraazacyclotetradecane] Palladium Diperchlorate Tetrahydrate (4H2O) [listing 2 of 2 here] | – | – | – | EC50 ([2]; mt4): 31.5 µM; EC50 ([3]; mt4): 59.3 µM |
| c1cc(CN2CCNCCCNCCNCC2)cc(CN2CCNCCCNCCNCC2)c1 | 0.0408 | 0.0618 | > 184 | – |

Second part, led by results:

| EC50 [2, 5] [µM] | EC50 [3, 6] [µM] | Molecule | CC50 ([1]; Homo sapiens, MT4) [µM] | further results |
| --- | --- | --- | --- | --- |
| 0.0843 | 0.759 | c1cc(CN2CCCNCCNCCNCCC2)cc(CN2CCCNCCNCCCNCC2)c1 | > 421 | – |
| 0.065 | 0.0731 | O=[N+]([O-])c1cc(CN2CCCNCCNCCCNCC2)ccc1CN1CCCNCCNCCCNCC1 | > 203 | – |
| 7.79 | 14.6 | CCN1CCCN(CC)CCN(Cc2ccc(CN3CCCN(CC)CCN(CC)CCCN(CC)CC3)cc2)CCCN(CC)CC1 | > 341 | – |
| 0.318 | 3.18 | c1cc(CN2CCCNCCNCCNCCC2)ccc1CN1CCCNCCCNCCCNCCC1 | 101 | – |
| 0.0253 | 0.059 | c1cc(CN2CCCNCCNCCNCCC2)ccc1CN1CCCNCCNCCNCCC1 | > 421 | – |
| 0.0079 | 0.0556 | c1cc(CN2CCCNCCNCCCNCC2)ccc1CN1CCCNCCNCCNCCC1 | > 397 | – |
| 0.0347 | 0.0734 | Fc1c(CN2CCCNCCNCCCNCC2)cccc1CN1CCCNCCNCCCNCC1 | > 201 | – |
| 0.0406 | 0.0569 | O=[N+]([O-])c1cc(CN2CCCNCCNCCCNCC2)cc(CN2CCCNCCNCCCNCC2)c1 | 44 | – |
| 0.0107 | 0.0025 | Clc1cc(CN2CCCNCCNCCCNCC2)c(Cl)cc1CN1CCCNCCNCCCNCC1 | 58 | – |
| 0.403 | 14.5 | c1cc(CCCN2CCCNCCNCCCNCC2)ccc1CCCN1CCCNCCNCCCNCC1 | 283 | – |
| 1.36 | 3.13 | c1ccc(CN2CCCNCCNCCCNCC2)c(CN2CCCNCCNCCCNCC2)c1 | > 168 | – |
| 1.42 | 1.15 | Cc1ccc(CN2CCCNCCNCCCNCC2)cc1 | > 324 | – |
| 0.0061 | 0.0035 | Brc1cc(CN2CCCNCCNCCCNCC2)ccc1CN1CCCNCCNCCCNCC1 | > 203 | – |
| 14.9 | 69.7 | c1cc(CCN2CCCNCCNCCCNCC2)ccc1CCN1CCCNCCNCCCNCC1 | > 201 | – |
| 0.106 | 0.08 | c1ccc(-c2cc(CN3CCCNCCNCCCNCC3)ccc2CN2CCCNCCNCCCNCC2)cc1 | > 198 | – |
| 0.138 | 0.246 | Brc1c(CN2CCCNCCNCCCNCC2)cccc1CN1CCCNCCNCCCNCC1 | > 144 | – |
| 9.13 | 13.7 | c1cc(CN2CCCNCCCNCCCNCCC2)ccc1CN1CCCNCCCNCCCNCCC1 | 48 | – |
| 0.506 | 0.674 | c1cc(CC2CNCCNCCCNCCNC2)ccc1CC1CNCCNCCCNCCNC1 | 406 | – |
| 0.323 | 0.645 | c1cc(CN2CCCNCCNCCNCCC2)cc(CN2CCCNCCNCCNCCC2)c1 | > 403 | – |
| 1.67 | 2.01 | c1cc(CN2CCCNCCCNCCNCCC2)ccc1CN1CCCNCCCNCCNCCC1 | 171 | – |
| 0.0058 | 0.0066 | COc1cc(CN2CCCNCCNCCCNCC2)c(OC)cc1CN1CCCNCCNCCCNCC1 | > 206 | – |
| 16.7 | 71.5 | c1cc(CN2CCCNCCCNCCCNCCC2)cc(CN2CCCNCCCNCCCNCCC2)c1 | 193 | – |
